According to US20250311727A1, “SUBSTITUTED 2-AMINOAZINES AND SALTS THEREOF, AND USE THEREOF AS HERBICIDAL ACTIVE SUBSTANCES” (BAYER AKTIENGESELLSCHAFT, priority 2022, published 2025):

Experiments:
Type in all cases: in vivo
Setaria viridis [1] = experiment: Post-emergence herbicidal efficacy at 80 g/ha, SETVI; conditions: rated visually after about 3 weeks vs untreated controls, 100% = plants have died
Text: (§1) Unwanted plants/weeds: • ABUTH: Abutilon theophrasti • ALOMY: Alopecurus myosuroides • AMARE: Amaranthus retroflexus • DIGSA: Digitaria sanguinalis • ECHCG: Echinochloa crus-galli • KCHSC: Kochia scoparia • LOLRI: Lolium rigidum • MATIN: Matricaria inodora • POAAN: Poa annua • POLCO: Polygonum convolvulus • SETVI: Setaria viridis • STEME: Stellaria media • VERPE: Veronica persica • VIOTR: Viola tricolor A. Post-Emergence Herbicidal Efficacy at 320 g/ha
(§2) Seeds of monocotyledonous and dicotyledonous weeds and crop plants were placed in sandy loam in plastic or organic planting pots, covered with soil and cultivated in a greenhouse under controlled growth conditions. 2 to 3 weeks after sowing, the test plants were treated at the one-leaf stage. The compounds of the invention, formulated in the form of wettable powders (WP) or as emulsion concentrates (EC), were then sprayed onto the green parts of the plants as aqueous suspension or emulsion with addition of 0.5% additive at a water application rate of 600 l/ha (converted). After the test plants had been kept in the greenhouse under optimum growth conditions for about 3 weeks, the activity of the preparations was rated visually in comparison to untreated controls. For example, 100% activity=the plants have died, 0% activity=like control plants.
(§3) Tables B1 to B11 below show the effects of selected compounds of the general formula (I) according to Table 1 on various harmful plants and an application rate corresponding to 80 g/ha, which were obtained by the experimental procedure mentioned above.

Amaranthus retroflexus [2] = experiment: Post-emergence herbicidal efficacy at 320 g/ha, AMARE; conditions: rated visually after about 3 weeks vs untreated controls, 100% = plants have died
How it was run: (§4)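 Visual % activity vs untreated controls, ~3 wk after spraying; 100% = plants dead, 0% = like control. Greenhouse pot plants in sandy loam, treated at one-leaf stage (2–3 wk post-sowing). WP/EC in water + 0.5% additive, 600 L/ha spray volume.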

Abutilon theophrasti [3] = experiment: Post-emergence herbicidal efficacy at 80 g/ha, ABUTH; conditions: rated visually after about 3 weeks vs untreated controls, 100% = plants have died
Text: as §1, §2, §3

Veronica persica [4] = experiment: Post-emergence herbicidal efficacy at 80 g/ha, VERPE; conditions: rated visually after about 3 weeks vs untreated controls, 100% = plants have died
How it was run: (§5)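 Foliar application at the one-leaf stage used wettable powder or emulsion concentrate formulations diluted in water with 0.5% additive (600 l/ha). Percent activity was estimated by eye after roughly 3 weeks in the greenhouse, relative to untreated controls.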

Abutilon theophrasti [5] = experiment: Pre-emergence herbicide efficacy at 320 g/ha, ABUTH; conditions: scored visually after about 3 weeks vs untreated controls, 100% = plants have died
Text: as §1
(§6) Seeds of mono- and dicotyledonous weed plants were placed in plastic pots in sandy loam soil (doubly sown with one species each of mono- or dicotyledonous weed plants per pot) and covered with soil. The compounds of the invention, formulated in the form of wettable powders (WP) or as emulsion concentrates (EC), were then applied to the surface of the covering soil as aqueous suspension or emulsion with addition of 0.5% additive at a water application rate of 600 litres per hectare (converted). After the treatment, the pots were placed in a greenhouse and kept under good growth conditions for the test plants. After about 3 weeks, the efficacy of the preparations was scored visually in comparison with untreated controls as percentages.
(§7) For example, 100% activity=the plants have died, 0% activity=like control plants.
(§8) Tables C1 to C12 below show the effects of selected compounds of the general formula (I) according to Table 1 on various harmful plants and at an application rate corresponding to 320 g/ha, which were obtained by the trial procedure specified above.

Echinochloa crus-galli [6] = experiment: Pre-emergence herbicide efficacy at 320 g/ha, ECHCG; conditions: scored visually after about 3 weeks vs untreated controls, 100% = plants have died
Text: as §1, §6, §7, §8

Poa annua [7] = experiment: Pre-emergence herbicide efficacy at 320 g/ha, POAAN; conditions: scored visually after about 3 weeks vs untreated controls, 100% = plants have died
Text: as §1, §6, §7, §8

Amaranthus retroflexus [8] = experiment: Pre-emergence herbicide efficacy at 320 g/ha, AMARE; conditions: scored visually after about 3 weeks vs untreated controls, 100% = plants have died
How it was run: (§9)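 Pre-emergence soil-surface spray of WP or EC formulation in water at 600 L/ha with 0.5% additive, over seeds covered in sandy loam. Scoring visual, ~3 weeks, % of untreated.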

Amaranthus retroflexus [9] = experiment: Post-emergence herbicidal efficacy at 80 g/ha, AMARE; conditions: rated visually after about 3 weeks vs untreated controls, 100% = plants have died
How it was run: as §5

Alopecurus myosuroides [10] = experiment: Pre-emergence herbicide efficacy at 320 g/ha, ALOMY; conditions: scored visually after about 3 weeks vs untreated controls, 100% = plants have died
Text: as §1, §6, §7, §8

Veronica persica [11] = experiment: Post-emergence herbicidal efficacy at 320 g/ha, VERPE; conditions: rated visually after about 3 weeks vs untreated controls, 100% = plants have died
How it was run: as §4

Digitaria sanguinalis [12] = experiment: Post-emergence herbicidal efficacy at 320 g/ha, DIGSA; conditions: rated visually after about 3 weeks vs untreated controls, 100% = plants have died
Text: as §1
(§10) Seeds of mono- and dicotyledonous weed plants were placed in plastic pots in sandy loam soil (doubly sown with in each case one species of mono- or dicotyledonous weed plants per pot), covered with soil and cultivated in a greenhouse under controlled growth conditions. 2 to 3 weeks after sowing, the test plants were treated at the one-leaf stage. The compounds of the invention, formulated in the form of wettable powders (WP) or as emulsion concentrates (EC), were applied to the green parts of the plants as aqueous suspension or emulsion with addition of 0.5% additive at a water application rate equivalent to 600 litres per hectare. After the test plants had been kept in the greenhouse under optimum growth conditions for about 3 weeks, the activity of the preparations was rated visually in comparison to untreated controls.
as §7
(§11) Tables A1 to A10 below show the effects of selected compounds of the general formula (I) according to Table 1 on various harmful plants and at an application rate corresponding to 320 g/ha, which were obtained by the trial procedure specified above.

Setaria viridis [13] = experiment: Pre-emergence herbicide efficacy at 80 g/ha, SETVI
Text: as §1
(§12) Seeds of monocotyledonous and dicotyledonous weed plants and crop plants were placed in plastic or organic planting pots and covered with soil. The compounds of the invention, formulated in the form of wettable powders (WP) or as emulsion concentrates (EC), were then applied to the surface of the covering soil as aqueous suspension or emulsion with addition of 0.5% additive at a water application rate equivalent to 600 l/ha. After the treatment, the pots were placed in a greenhouse and kept under good growth conditions for the test plants. After about 3 weeks, the efficacy of the preparations was scored visually in comparison with untreated controls as percentages. For example, 100% activity=the plants have died, 0% activity=like control plants.
(§13) Tables D1 to D12 below show the effects of selected compounds of the general formula (I) according to Table 1 on various harmful plants and an application rate corresponding to 80 g/ha, which were obtained by the experimental procedure mentioned above.

Kochia scoparia [14] = experiment: Pre-emergence herbicide efficacy at 320 g/ha, KCHSC; conditions: scored visually after about 3 weeks vs untreated controls, 100% = plants have died
How it was run: as §9

Viola tricolor [15] = experiment: Pre-emergence herbicide efficacy at 80 g/ha, VIOTR
Text: as §1, §12, §13

Digitaria sanguinalis [16] = experiment: Pre-emergence herbicide efficacy at 320 g/ha, DIGSA; conditions: scored visually after about 3 weeks vs untreated controls, 100% = plants have died
How it was run: as §9

Alopecurus myosuroides [17] = experiment: Post-emergence herbicidal efficacy at 320 g/ha, ALOMY; conditions: rated visually after about 3 weeks vs untreated controls, 100% = plants have died
Text: as §1, §10, §7, §11

Veronica persica [18] = experiment: Pre-emergence herbicide efficacy at 320 g/ha, VERPE; conditions: scored visually after about 3 weeks vs untreated controls, 100% = plants have died
How it was run: as §9

Poa annua [19] = experiment: Post-emergence herbicidal efficacy at 320 g/ha, POAAN; conditions: rated visually after about 3 weeks vs untreated controls, 100% = plants have died
Text: as §1, §10, §7, §11

Setaria viridis [20] = experiment: Pre-emergence herbicide efficacy at 320 g/ha, SETVI; conditions: scored visually after about 3 weeks vs untreated controls, 100% = plants have died
How it was run: as §9

Kochia scoparia [21] = experiment: Post-emergence herbicidal efficacy at 320 g/ha, KCHSC; conditions: rated visually after about 3 weeks vs untreated controls, 100% = plants have died
How it was run: as §4

Digitaria sanguinalis [22] = experiment: Pre-emergence herbicide efficacy at 80 g/ha, DIGSA; conditions: scored visually after about 3 weeks vs untreated controls, 100% = plants have died
Text: as §1, §12, §13

Kochia scoparia [23] = experiment: Post-emergence herbicidal efficacy at 80 g/ha, KCHSC; conditions: rated visually after about 3 weeks vs untreated controls, 100% = plants have died
Text: as §1, §2, §3

Viola tricolor [24] = experiment: Post-emergence herbicidal efficacy at 80 g/ha, VIOTR; conditions: rated visually after about 3 weeks vs untreated controls, 100% = plants have died
Text: as §1, §2, §3

Veronica persica [25] = experiment: Pre-emergence herbicide efficacy at 80 g/ha, VERPE
Text: as §1, §12, §13

Echinochloa crus-galli [26] = experiment: Post-emergence herbicidal efficacy at 320 g/ha, ECHCG; conditions: rated visually after about 3 weeks vs untreated controls, 100% = plants have died
Text: as §1, §10, §7, §11

Stellaria media [27] = experiment: Post-emergence herbicidal efficacy at 320 g/ha, STEME; conditions: rated visually after about 3 weeks vs untreated controls, 100% = plants have died
How it was run: as §4

Abutilon theophrasti [28] = experiment: Post-emergence herbicidal efficacy at 320 g/ha, ABUTH; conditions: rated visually after about 3 weeks vs untreated controls, 100% = plants have died
How it was run: as §4

Stellaria media [29] = experiment: Pre-emergence herbicide efficacy at 320 g/ha, STEME; conditions: scored visually after about 3 weeks vs untreated controls, 100% = plants have died
How it was run: as §9

Amaranthus retroflexus [30] = experiment: Pre-emergence herbicide efficacy at 80 g/ha, AMARE; conditions: scored visually after about 3 weeks vs untreated controls, 100% = plants have died
Text: as §1, §12, §13

Fc1cccc(Nc2ncc(Cl)cn2)c1-c1cc(C(F)F)no1 [Example 1-33]
100%: Post-emergence efficacy at 80 g/ha against SETVI in % (Setaria viridis [1]) | Post-emergence efficacy at 320 g/ha against AMARE in % (Amaranthus retroflexus [2]) | Post-emergence efficacy at 80 g/ha against VERPE in % (Veronica persica [4]) | Pre-emergence efficacy at 320 g/ha against ABUTH in % (Abutilon theophrasti [5]) | Pre-emergence efficacy at 320 g/ha against ECHCG in % (Echinochloa crus-galli [6]) | Pre-emergence efficacy at 320 g/ha against POAAN in % (Poa annua [7]) | Pre-emergence efficacy at 320 g/ha against AMARE in % (Amaranthus retroflexus [8]) | Post-emergence efficacy at 80 g/ha against AMARE in % (Amaranthus retroflexus [9]) | Pre-emergence efficacy at 320 g/ha against ALOMY in % (Alopecurus myosuroides [10]) | Post-emergence efficacy at 320 g/ha against VERPE in % (Veronica persica [11]) | Post-emergence efficacy at 320 g/ha against DIGSA in % (Digitaria sanguinalis [12]) | Pre-emergence efficacy against SETVI (Setaria viridis [13]) | Pre-emergence efficacy at 320 g/ha against KCHSC in % (Kochia scoparia [14]) | Pre-emergence efficacy at 320 g/ha against DIGSA in % (Digitaria sanguinalis [16]) | Post-emergence efficacy at 320 g/ha against ALOMY in % (Alopecurus myosuroides [17]) | Pre-emergence efficacy at 320 g/ha against VERPE in % (Veronica persica [18]) | Post-emergence efficacy at 320 g/ha against POAAN in % (Poa annua [19]) | Pre-emergence efficacy at 320 g/ha against SETVI in % (Setaria viridis [20]) | Post-emergence efficacy at 320 g/ha against KCHSC in % (Kochia scoparia [21]) | Post-emergence efficacy at 80 g/ha against KCHSC in % (Kochia scoparia [23]) | Post-emergence efficacy at 80 g/ha against VIOTR in % (Viola tricolor [24]) | Post-emergence efficacy at 320 g/ha against ECHCG in % (Echinochloa crus-galli [26]) | Post-emergence efficacy at 320 g/ha against STEME in % (Stellaria media [27]) | Post-emergence efficacy at 320 g/ha against ABUTH in % (Abutilon theophrasti [28]) | Pre-emergence efficacy at 320 g/ha against STEME in % (Stellaria media [29]) | Pre-emergence efficacy at 80 g/ha against AMARE in % (Amaranthus retroflexus [30])
90%: Pre-emergence efficacy against VIOTR (Viola tricolor [15]) | Pre-emergence efficacy at 80 g/ha against DIGSA in % (Digitaria sanguinalis [22]) | Pre-emergence efficacy against VERPE (Veronica persica [25])
80%: Post-emergence efficacy at 80 g/ha against ABUTH in % (Abutilon theophrasti [3])
